# Measurements reported in US20250114329A1, “METHODS FOR TREATING AML-MRC AND MDS” (Ascentage Pharma (Suzhou) Co., LTD, priority 2022, published 2025).
# What was measured:
# [1] = tested on: relapsed/refractory AML, CMML or MDS (AML-MRC subject); assay: Phase Ib/II study of Compound C alone or in combination with azacitidine (Example 1); format: in vivo, human; settings: Compound C alone, 150 mg
# From the text: This was a two part study in patients with relapsed/refractory (R/R) acute myeloid leukemia (AML), Chronic Myelomonocytic Leukemia (CMML) and relapsed/progressed higher-risk myelodysplastic syndrome (MDS), that was designed to evaluate the safety and tolerability of Compound C as a single agent in Part I, followed by a combination of Compound C plus 5-azacitidine in Part II. Part I: Dose escalation of Compound C will use standard 3+3 design. Compound C will be administered orally once daily (QD) on Day 1 to 5 every 28-day cycle. The starting target dose is 100 mg (dose level; DL1) and will be increased in subsequent cohorts to 150 mg (DL2), 200 mg (DL3) and 250 mg (DL4), accordingly. Part II: Compound C will be co-administered with 5-azacitidine SC or IV at 75 mg/m^2 once daily on 7 out of 9 days from Day 1 to Day 9 every 28-day cycle.
# H929 cells = assay: Western Blotting assay; format: cell-based, human; settings: 24 hrs or 48 hrs
# Description: After treatments with single or combined test articles, cultured cells were harvested and washed with ice-cold PBS. Cell pellets were lysed in RIPA buffer containing 1% PMSF, 1% phosphatase inhibitor, and 1% protease inhibitors. Protein concentrations were determined using the BCA Protein Assay Kit. Whole tumor lysates ([…]) were separated on an 8-12% SDS-PAGE. The separated proteins were transferred to a PVDF membrane. The PVDF membrane was blocked with 1-3% BSA buffer for 30 min to 1 hour at room temperature. Incubate membrane with diluted primary antibody in 1×TBST containing 1-3% BSA at 4° C., with gentle agitation overnight. Wash the membrane with 1×TBST three times. Incubate membrane with HRP-conjugated secondary antibody with gentle agitation for 1 hour at room temperature. Wash the membrane with 1×TBST three times. The signals were visualized with Super ECL Detection Reagent and detected by chemiluminescence imaging system.
# [2] = tested on: R/R AML with myelodysplasia-related changes; assay: Phase Ib/II study of Compound C alone or in combination with 5-azacitidine or cytarabine (Example 2); format: in vivo, human; settings: Compound C alone, person, R/R AML-MRC
# From the text: This was a three parts study in patients with relapsed/refractory acute myeloid leukemia (AML), relapsed or progressed high or very high risk myelodysplastic syndrome (MDS) that was designed to evaluate the safety and tolerability of Compound C as a single agent in Part I, followed by a combination dose escalation of Compound C plus either 5-azacitidine or cytarabine in Part II and a dose expansion of the combination treatment in part III. Part I: Dose escalation of Compound C will use standard 3+3 design. Compound C will be administered orally once daily (QD) on Day 1 to 7 every 28-day cycle. The starting target dose is 100 mg (dose level; DL1) and will be increased in subsequent cohorts to 150 mg (DL2), 200 mg (DL3) and 250 mg (DL4), accordingly. Part II: Dose escalation of Compound C combination with either 5-azacitidine or cytarabine, which includes two Arms, Arm A and Arm B. Arm A will enroll patients with relapsed or progressed high or very high risk MDS and Arm B will enroll patients with R/R AML. In this part, 5-azacitidine and cytarabine will be administered with fixed dose. The starting dose of Compound C was 100 mg and will be increased subsequently to 150 mg and 200 mg. In Arm A, Compound C will be co-administered with 5-azacitidine subcutaneously injected at 75 mg/m^2 once daily on Day 1 to 7 every 28-day cycle. In Arm B, Compound C will be co-administered once daily on Day 1 to 7 every 28-day cycle with cytarabine intravenously administered at 1 g/m^2 once daily on Day 3 to 7 every 28-day cycle.
compound,measurement,setting,value
"CCN1[C@@H](C(=O)NC23CCC(C(=O)O)(CC2)CC3)[C@H](c2cccc(Cl)c2F)[C@]2(C(=O)Nc3cc(Cl)ccc32)C12CCCCC2 [Compound C, alrizomadlin]",End of cycle 1 disease assessment,"[1]; person, AML-MRC (TP53w, FLT3-, IDH1/2-), prior venetoclax + decitabine",CRi
same,Blast at C2D1,"[1]; reduced from 43%, Day 1 of cycle 2",to 13%
same,Blast at C3D1,"[1]; reduced from 43%, Day 1 of cycle 3","C2D1, to 3%"
same,"P53, MDM2 and P21 expression",H929 cells,upregulated
same,Response,"[2]; 100 mg, prior D-CAG, C1D62",CRi
same,Response,"[2]; 200 mg, prior D-CAG, C3D21",CRi
same,Response,"[2]; 250 mg, several prior regimens",MLFS
